Test results: patent publication US8252807B2, “Methods of inhibiting the interaction between S100 and the receptor for advanced glycation end-products” (Board of Regents, The University of Texas System, priority 2007, dated 2012)

What was measured:
[1] = tested on: MPanc-96 orthotopic tumors; test: Tumor growth and metastasis in scid mice, MPanc-96 orthotopic; format: in vivo; settings: for liver metastasis, difference versus control / lung metastasis, difference versus control / tumor burden, difference versus control / lung metastasis, mean / liver metastasis, mean / tumor burden (primary tumor volume by bioluminescence), mean: MPanc-96; for lung metastasis, mean: control mean=5.9×10^7; for liver metastasis, mean: control mean=9.4×10^8; for tumor burden (primary tumor volume by bioluminescence), mean: end of six weeks, cromolyn 5 mg per kg daily i.p., gemcitabine 125 mg per kg bi-weekly i.p., control mean=1.1×10^10
Procedure: FIGS. 5A-5F show the effect of cromolyn on MPanc-96 tumor growth and metastasis in vivo. MPanc-96 cells stably expressing the firefly luciferase gene were injected orthotopically into 4-week-old male CB 17 scid mice. […] Mice were divided into four groups of five mice each with an equivalent mean tumor size between groups. […] One group was treated with water (control), one group received gemcitabine bi-weekly (125 mg per kg body weight bi-weekly by intraperitoneal injection), one group was administered cromolyn daily (5 mg per kg body weight daily by intraperitoneal injection), and the final group was given the combination of cromolyn and gemcitabine. All groups were treated for six weeks. Bioluminescent imaging was done weekly to assess tumor growth. […] Means and 95% confidence intervals from two independent experiments are shown (n=20). Two-tailed two-sample (unpaired) Student's t-tests were used to determine P values. The anti-tumorigenic capability of the drug cromolyn was assessed in 4-week-old male CB 17 scid mice (n=20) carrying orthopic tumors of BxPC-3, MPanc96, and Panc-1 cells stably expressing a Lenti-luc reporter. All mouse experiments were reviewed and approved by the Institutional Animal Care and Use Committee of UT MD Anderson Cancer Center. All mice were maintained in a sterile environment. Cages, bedding, food, and water were all autoclaved. All mice were maintained on a daily 12-hour light/12-hour dark cycle, according to the institutional animal welfare guidelines. BxPC-3, MPanc96, and Panc-1 cells carrying the Lenti-luc reporter gene were grown to 80% confluence, harvested by incubation with trypsin-EDTA, washed twice in PBS, and resuspended to a final concentration of 4.0×10^6 cells/mL. Each mouse (n=20 mice per cell line) was injected (into the pancreas) with cell suspensions (50 μL). […] This initial tumor volume was used to divide the mice into four groups of five mice each, such that the mean tumor size was equal between groups (FIGS. 4A, 5A, and 6A). To allow enough time to observe differences among treatment groups, the mice were followed for the next 5 weeks. One group of mice was then treated biweekly with a sub-maximal concentration of gemcitabine (125 mg per kg body weight by i.p. injection). A second group was treated with a daily injection of cromolyn (5 mg per kg body weight by i.p. injection). A third group was treated with both bi-weekly gemcitabine and daily cromolyn. The control group was treated daily with vehicle. Treatments were continued for 5 weeks, and the effects on the tumor burden and metastasis were analyzed by weekly bioluminescence imaging (FIGS. 4B, 5B, and 6B). At the end of the experiment the mice were anesthetized with 1.5% isofluorane/air mixture and killed by cervical dislocation. […] Before imaging, mice were placed in an acrylic chamber, anesthetized with 1.5% isofluorane/air mixture, and injected i.p. with 15 mg/mL of luciferin potassium salt in PBS at a dose of 150 mg per kg body weight. A digital grey scale image of each mouse was acquired, followed by acquisition and overlay of a pseudocolor image representing the spatial distribution of detected photons emerging from active luciferase within the mouse. Tumor volume was quantified as the sum of all detected photons within the region of the tumor per second. At the end of experiment, the mice were killed, and tumors were surgically removed and weighed. After the primary tumors were removed, cancer cell dissemination and metastasis was visualized using IVIS imaging, and metastatic colonies were counted. Subsequently, tissues were fixed with formaldehyde, and histology was used to verify the accuracy of the bioluminescence data.

[2] = tested on: BxPC-3 orthotopic tumors; test: Tumor growth and metastasis in scid mice, BxPC-3 orthotopic; format: in vivo; settings: for lung metastasis, mean: control mean=5.5×10^8; for tumor burden (primary tumor volume by bioluminescence), mean: end of six weeks, cromolyn 5 mg per kg daily i.p., gemcitabine 125 mg per kg bi-weekly i.p., control mean=1.6×10^9
Procedure: BxPC-3 cells stably expressing the firefly luciferase gene were injected orthotopically into 4 week old male CB 17 scid mice. […] Mice were divided into four groups of five mice each with an equivalent mean tumor size between groups. […] One group was treated with water (control), one group received gemcitabine bi-weekly (125 mg kg body weight bi-weekly by intraperitoneal injection), one group was administered cromolyn daily (5 mg per kg body weight daily by intraperitoneal injection), and the final group was given the combination of daily cromolyn and bi-weekly gemcitabine. All groups were treated for six weeks. Bioluminescent imaging was done weekly to assess tumor growth. […] Means and 95% confidence intervals are shown. (n=20). Two-tailed two-sample (unpaired) Student's t-tests were used to determine P values. The anti-tumorigenic capability of the drug cromolyn was assessed in 4-week-old male CB 17 scid mice (n=20) carrying orthopic tumors of BxPC-3, MPanc96, and Panc-1 cells stably expressing a Lenti-luc reporter. All mouse experiments were reviewed and approved by the Institutional Animal Care and Use Committee of UT MD Anderson Cancer Center. All mice were maintained in a sterile environment. Cages, bedding, food, and water were all autoclaved. All mice were maintained on a daily 12-hour light/12-hour dark cycle, according to the institutional animal welfare guidelines. BxPC-3, MPanc96, and Panc-1 cells carrying the Lenti-luc reporter gene were grown to 80% confluence, harvested by incubation with trypsin-EDTA, washed twice in PBS, and resuspended to a final concentration of 4.0×10^6 cells/mL. Each mouse (n=20 mice per cell line) was injected (into the pancreas) with cell suspensions (50 μL). […] This initial tumor volume was used to divide the mice into four groups of five mice each, such that the mean tumor size was equal between groups (FIGS. 4A, 5A, and 6A). To allow enough time to observe differences among treatment groups, the mice were followed for the next 5 weeks. One group of mice was then treated biweekly with a sub-maximal concentration of gemcitabine (125 mg per kg body weight by i.p. injection). A second group was treated with a daily injection of cromolyn (5 mg per kg body weight by i.p. injection). A third group was treated with both bi-weekly gemcitabine and daily cromolyn. The control group was treated daily with vehicle. Treatments were continued for 5 weeks, and the effects on the tumor burden and metastasis were analyzed by weekly bioluminescence imaging (FIGS. 4B, 5B, and 6B). At the end of the experiment the mice were anesthetized with 1.5% isofluorane/air mixture and killed by cervical dislocation. […] Before imaging, mice were placed in an acrylic chamber, anesthetized with 1.5% isofluorane/air mixture, and injected i.p. with 15 mg/mL of luciferin potassium salt in PBS at a dose of 150 mg per kg body weight. A digital grey scale image of each mouse was acquired, followed by acquisition and overlay of a pseudocolor image representing the spatial distribution of detected photons emerging from active luciferase within the mouse. Tumor volume was quantified as the sum of all detected photons within the region of the tumor per second. At the end of experiment, the mice were killed, and tumors were surgically removed and weighed. After the primary tumors were removed, cancer cell dissemination and metastasis was visualized using IVIS imaging, and metastatic colonies were counted. Subsequently, tissues were fixed with formaldehyde, and histology was used to verify the accuracy of the bioluminescence data.

Row | Compound | liver metastasis, difference versus control [1] | lung metastasis, difference versus control [1] | tumor burden, difference versus control [1] | lung metastasis, mean [1] | liver metastasis, mean [1] | tumor burden (primary tumor volume by bioluminescence), mean [1] | tumor burden, difference versus control ([2]; BxPC-3) | effect on liver metastasis ([2]; BxPC-3, versus control) | effect on lung metastasis ([2]; BxPC-3, versus control) | lung metastasis, mean ([2]; BxPC-3) | tumor burden (primary tumor volume by bioluminescence), mean ([2]; BxPC-3) | body weight, difference versus control ([2]; BxPC-3 model) | body weight at the end of the experiment, mean ([2]; BxPC-3 model, control mean=31.1) | effect on body weight ([1]; MPanc-96 model, up to 6 weeks) | lung metastasis, difference versus control ([2]; BxPC-3) | effect on body weight ([2]; BxPC-3 model, up to 6 weeks)
1 | Nc1ccn([C@@H]2O[C@H](CO)[C@@H](O)C2(F)F)c(=O)n1 [gemcitabine] | 8.1×10^8 photons/sec | 5.4×10^7 photons/sec | 6.9×10^9 photons/sec | 5.0×10^6 photons/sec | 1.2×10^8 photons/sec | 4.1×10^9 photons/sec | 6.8×10^8 photons/sec | did not reduce metastasis | did not reduce metastasis | 3.9×10^8 photons/sec | 9.2×10^8 photons/sec | 3.9 g | 27.2 g |  |  | 
2 | O=C(O)c1cc(=O)c2c(OCC(O)COc3cccc4oc(C(=O)O)cc(=O)c34)cccc2o1 [cromolyn, disodium 1,3-bis[(2′-carboxylatochromon-5′-yl)oxy]-2-hydroxypropane] | 7.2×10^8 photons/sec | 5.6×10^7 photons/sec | 6.2×10^9 photons/sec | 3.2×10^6 photons/sec | 2.2×10^8 photons/sec | 4.8×10^9 photons/sec | 1.2×10^9 photons/sec |  |  | 1.6×10^8 photons/sec | 4.4×10^8 photons/sec |  |  | no effect on body weight | 3.9×10^8 photons/sec | no effect on body weight
